Values joined by “and” are separate entries in the source; they are usually repeats but may differ in a detail not shown here. Identical values can stand only once.
What was measured:
UGT2B15 = molecular target: T1, UGT2B15 (Homo sapiens, UniProt P54855); assay: M1 formation from molidustat by recombinant UGT2B15; assay type: in vitro ADME; conditions: 1 and 10 µmol L^−1
T1 sequence (P54855 24-530): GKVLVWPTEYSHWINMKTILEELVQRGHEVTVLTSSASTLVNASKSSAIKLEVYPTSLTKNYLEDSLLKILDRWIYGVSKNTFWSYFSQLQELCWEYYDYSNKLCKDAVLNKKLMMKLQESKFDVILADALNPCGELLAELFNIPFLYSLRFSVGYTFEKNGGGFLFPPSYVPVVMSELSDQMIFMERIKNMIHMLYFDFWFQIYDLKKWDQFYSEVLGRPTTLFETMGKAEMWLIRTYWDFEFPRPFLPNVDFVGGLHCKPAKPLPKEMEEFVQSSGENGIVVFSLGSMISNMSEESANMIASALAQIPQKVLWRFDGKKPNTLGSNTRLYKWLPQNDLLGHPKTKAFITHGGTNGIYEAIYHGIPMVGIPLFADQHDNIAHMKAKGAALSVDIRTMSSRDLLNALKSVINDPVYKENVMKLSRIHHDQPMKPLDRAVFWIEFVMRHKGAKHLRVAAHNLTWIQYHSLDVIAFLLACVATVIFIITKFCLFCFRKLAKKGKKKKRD

UGT2B4 = molecular target: T2, UGT2B4 (Homo sapiens, UniProt P06133); assay: M1 formation from molidustat by recombinant UGT2B4; assay type: in vitro ADME; conditions: 1 and 10 µmol L^−1
T2 sequence (P06133 24-528): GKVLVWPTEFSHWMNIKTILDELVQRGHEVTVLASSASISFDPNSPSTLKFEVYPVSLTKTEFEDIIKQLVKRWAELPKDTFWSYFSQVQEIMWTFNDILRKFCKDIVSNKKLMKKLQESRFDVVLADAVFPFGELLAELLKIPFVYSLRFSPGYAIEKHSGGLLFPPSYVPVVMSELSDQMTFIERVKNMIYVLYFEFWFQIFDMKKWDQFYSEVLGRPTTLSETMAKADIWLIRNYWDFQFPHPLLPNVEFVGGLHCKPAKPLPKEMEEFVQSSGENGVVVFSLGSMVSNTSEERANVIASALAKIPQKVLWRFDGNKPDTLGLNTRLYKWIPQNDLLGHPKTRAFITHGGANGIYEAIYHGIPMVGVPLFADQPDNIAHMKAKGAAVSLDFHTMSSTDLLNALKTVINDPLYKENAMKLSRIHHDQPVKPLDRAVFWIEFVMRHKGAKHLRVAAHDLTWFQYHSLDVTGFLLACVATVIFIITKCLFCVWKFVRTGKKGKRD

UGT1A6 = molecular target: T3, UGT1A6 (Homo sapiens, UniProt P19224); assay: M1 formation from molidustat by recombinant UGT1A6; assay type: in vitro ADME; conditions: 1 and 10 µmol L^−1
T3 sequence (P19224 27-532): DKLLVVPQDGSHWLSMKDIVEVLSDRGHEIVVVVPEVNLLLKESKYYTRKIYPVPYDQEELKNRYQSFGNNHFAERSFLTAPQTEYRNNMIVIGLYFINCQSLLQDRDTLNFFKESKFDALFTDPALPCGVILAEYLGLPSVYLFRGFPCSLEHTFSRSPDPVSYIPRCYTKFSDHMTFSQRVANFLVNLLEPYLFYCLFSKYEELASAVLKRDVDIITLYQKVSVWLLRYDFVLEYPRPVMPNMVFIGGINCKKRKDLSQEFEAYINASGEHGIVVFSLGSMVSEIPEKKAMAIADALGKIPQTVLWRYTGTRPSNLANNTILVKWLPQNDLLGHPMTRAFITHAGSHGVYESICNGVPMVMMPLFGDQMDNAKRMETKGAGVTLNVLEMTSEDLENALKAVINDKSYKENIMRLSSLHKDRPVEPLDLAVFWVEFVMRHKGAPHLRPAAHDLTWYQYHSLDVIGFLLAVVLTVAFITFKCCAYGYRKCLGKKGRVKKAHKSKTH

[1] = system: molidustat glucuronidation (clearance); assay: In vitro-in vivo scaling: predicted increase in molidustat AUC; parameters: species or system human; conditions: based on mass balance study, no differentiation UGT1A1/UGT1A9

**Q.** For O=c1c(-n2ccnn2)c[nH]n1-c1cc(N2CCOCC2)ncn1 [Molidustat], which “activity for glucuronidation of molidustat” value (“activity for glucuronidation” below) (UGT2B15) is on record?
**A.** lacked measurable activity

**Q.** And the “activity for glucuronidation” value (UGT2B4)?
**A.** lacked measurable activity

**Q.** What about the “activity for glucuronidation” value (UGT1A6) of the same compound?
**A.** lacked measurable activity

**Q.** And the “Fraction metabolized via total glucuronidation (fm)” value [1]?
**A.** ~ 0.9 and 0.9
